Test results: article doi:10.1101/2023.10.03.560722, “Drug Discovery in Low Data Regimes: Leveraging a Computational Pipeline for the Discovery of Novel SARS-CoV-2 Nsp14-MTase Inhibitors” (bioRxiv, 2024)
Like-named read-outs stand apart in the source and are kept apart here.

Key:
Format in all cases: biochemical
PRMT4 = target: T1, PRMT4 (Homo sapiens, UniProt Q86X55); assay: human MTase selectivity panel
T1 sequence (Q86X55 1-608): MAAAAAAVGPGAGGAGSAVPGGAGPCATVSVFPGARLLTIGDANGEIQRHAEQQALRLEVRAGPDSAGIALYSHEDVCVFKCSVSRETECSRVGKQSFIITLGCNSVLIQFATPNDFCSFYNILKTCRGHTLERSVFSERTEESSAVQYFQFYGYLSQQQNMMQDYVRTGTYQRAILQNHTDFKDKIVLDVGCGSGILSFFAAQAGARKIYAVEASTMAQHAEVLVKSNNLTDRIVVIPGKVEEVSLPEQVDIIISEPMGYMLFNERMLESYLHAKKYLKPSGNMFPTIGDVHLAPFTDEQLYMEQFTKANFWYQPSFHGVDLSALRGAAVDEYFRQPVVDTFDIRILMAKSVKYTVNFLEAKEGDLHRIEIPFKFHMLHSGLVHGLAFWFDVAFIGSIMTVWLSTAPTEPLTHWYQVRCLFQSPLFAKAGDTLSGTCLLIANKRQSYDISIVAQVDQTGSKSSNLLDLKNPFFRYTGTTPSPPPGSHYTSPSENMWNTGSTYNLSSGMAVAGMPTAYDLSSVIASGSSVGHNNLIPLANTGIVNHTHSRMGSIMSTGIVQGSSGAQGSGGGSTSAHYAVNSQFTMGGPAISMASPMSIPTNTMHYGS

PRMT6 = PRMT6 (Homo sapiens, UniProt Q96LA8); assay: human MTase selectivity panel
PRMT6, sequence (Q96LA8 whole entry): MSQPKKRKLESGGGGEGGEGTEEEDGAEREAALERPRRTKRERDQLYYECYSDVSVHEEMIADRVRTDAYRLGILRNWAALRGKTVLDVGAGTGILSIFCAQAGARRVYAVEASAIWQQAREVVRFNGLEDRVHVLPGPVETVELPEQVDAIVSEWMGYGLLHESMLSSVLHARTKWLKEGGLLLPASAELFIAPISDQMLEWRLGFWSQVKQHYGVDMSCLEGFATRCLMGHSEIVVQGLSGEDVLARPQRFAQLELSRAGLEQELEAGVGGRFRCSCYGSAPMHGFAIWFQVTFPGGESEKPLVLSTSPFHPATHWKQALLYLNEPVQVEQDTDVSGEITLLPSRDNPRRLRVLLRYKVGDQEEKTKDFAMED

SARS-CoV-2 nsp14 MTase = SARS-CoV-2 nsp14 MTase (Severe acute respiratory syndrome coronavirus 2, UniProt P0DTD1); assay: biochemical
GLP = target: T2, GLP (Homo sapiens, UniProt Q9H9B1); assay: human MTase selectivity panel
T2 sequence (Q9H9B1 1-1298): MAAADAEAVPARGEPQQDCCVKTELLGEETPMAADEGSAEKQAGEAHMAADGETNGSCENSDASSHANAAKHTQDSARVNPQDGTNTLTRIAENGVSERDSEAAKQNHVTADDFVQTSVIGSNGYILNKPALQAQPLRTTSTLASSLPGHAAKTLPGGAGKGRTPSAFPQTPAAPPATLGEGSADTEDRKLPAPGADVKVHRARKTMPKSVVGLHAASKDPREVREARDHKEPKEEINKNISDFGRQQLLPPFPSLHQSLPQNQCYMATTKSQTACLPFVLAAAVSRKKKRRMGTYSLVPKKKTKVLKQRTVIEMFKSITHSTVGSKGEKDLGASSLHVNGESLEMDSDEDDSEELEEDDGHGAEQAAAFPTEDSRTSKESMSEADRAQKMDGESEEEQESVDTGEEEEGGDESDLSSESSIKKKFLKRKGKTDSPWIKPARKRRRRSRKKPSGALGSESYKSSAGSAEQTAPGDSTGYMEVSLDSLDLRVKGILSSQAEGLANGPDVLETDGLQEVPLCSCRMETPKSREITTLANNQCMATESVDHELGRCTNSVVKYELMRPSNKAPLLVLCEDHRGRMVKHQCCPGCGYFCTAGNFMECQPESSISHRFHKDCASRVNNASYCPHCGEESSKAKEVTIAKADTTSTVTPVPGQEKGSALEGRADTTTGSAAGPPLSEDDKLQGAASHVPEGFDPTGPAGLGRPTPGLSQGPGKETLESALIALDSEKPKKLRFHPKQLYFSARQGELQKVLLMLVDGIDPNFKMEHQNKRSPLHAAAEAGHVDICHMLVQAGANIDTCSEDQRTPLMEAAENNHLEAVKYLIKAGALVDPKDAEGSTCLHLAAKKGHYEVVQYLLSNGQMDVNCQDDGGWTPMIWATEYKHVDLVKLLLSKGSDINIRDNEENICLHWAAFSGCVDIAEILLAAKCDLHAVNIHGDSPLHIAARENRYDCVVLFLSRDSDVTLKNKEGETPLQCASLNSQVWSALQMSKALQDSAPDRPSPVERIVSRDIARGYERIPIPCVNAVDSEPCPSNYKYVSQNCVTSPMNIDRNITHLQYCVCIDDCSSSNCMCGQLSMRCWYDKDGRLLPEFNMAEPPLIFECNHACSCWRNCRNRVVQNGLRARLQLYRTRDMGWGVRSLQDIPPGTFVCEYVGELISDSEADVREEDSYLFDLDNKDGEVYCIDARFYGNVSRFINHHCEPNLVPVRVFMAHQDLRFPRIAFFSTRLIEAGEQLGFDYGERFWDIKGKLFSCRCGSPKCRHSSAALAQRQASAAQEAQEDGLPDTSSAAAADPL

SETD2 = SETD2 (Homo sapiens, UniProt Q9BYW2); assay: human MTase selectivity panel
SETD2, sequence (Q9BYW2 whole entry): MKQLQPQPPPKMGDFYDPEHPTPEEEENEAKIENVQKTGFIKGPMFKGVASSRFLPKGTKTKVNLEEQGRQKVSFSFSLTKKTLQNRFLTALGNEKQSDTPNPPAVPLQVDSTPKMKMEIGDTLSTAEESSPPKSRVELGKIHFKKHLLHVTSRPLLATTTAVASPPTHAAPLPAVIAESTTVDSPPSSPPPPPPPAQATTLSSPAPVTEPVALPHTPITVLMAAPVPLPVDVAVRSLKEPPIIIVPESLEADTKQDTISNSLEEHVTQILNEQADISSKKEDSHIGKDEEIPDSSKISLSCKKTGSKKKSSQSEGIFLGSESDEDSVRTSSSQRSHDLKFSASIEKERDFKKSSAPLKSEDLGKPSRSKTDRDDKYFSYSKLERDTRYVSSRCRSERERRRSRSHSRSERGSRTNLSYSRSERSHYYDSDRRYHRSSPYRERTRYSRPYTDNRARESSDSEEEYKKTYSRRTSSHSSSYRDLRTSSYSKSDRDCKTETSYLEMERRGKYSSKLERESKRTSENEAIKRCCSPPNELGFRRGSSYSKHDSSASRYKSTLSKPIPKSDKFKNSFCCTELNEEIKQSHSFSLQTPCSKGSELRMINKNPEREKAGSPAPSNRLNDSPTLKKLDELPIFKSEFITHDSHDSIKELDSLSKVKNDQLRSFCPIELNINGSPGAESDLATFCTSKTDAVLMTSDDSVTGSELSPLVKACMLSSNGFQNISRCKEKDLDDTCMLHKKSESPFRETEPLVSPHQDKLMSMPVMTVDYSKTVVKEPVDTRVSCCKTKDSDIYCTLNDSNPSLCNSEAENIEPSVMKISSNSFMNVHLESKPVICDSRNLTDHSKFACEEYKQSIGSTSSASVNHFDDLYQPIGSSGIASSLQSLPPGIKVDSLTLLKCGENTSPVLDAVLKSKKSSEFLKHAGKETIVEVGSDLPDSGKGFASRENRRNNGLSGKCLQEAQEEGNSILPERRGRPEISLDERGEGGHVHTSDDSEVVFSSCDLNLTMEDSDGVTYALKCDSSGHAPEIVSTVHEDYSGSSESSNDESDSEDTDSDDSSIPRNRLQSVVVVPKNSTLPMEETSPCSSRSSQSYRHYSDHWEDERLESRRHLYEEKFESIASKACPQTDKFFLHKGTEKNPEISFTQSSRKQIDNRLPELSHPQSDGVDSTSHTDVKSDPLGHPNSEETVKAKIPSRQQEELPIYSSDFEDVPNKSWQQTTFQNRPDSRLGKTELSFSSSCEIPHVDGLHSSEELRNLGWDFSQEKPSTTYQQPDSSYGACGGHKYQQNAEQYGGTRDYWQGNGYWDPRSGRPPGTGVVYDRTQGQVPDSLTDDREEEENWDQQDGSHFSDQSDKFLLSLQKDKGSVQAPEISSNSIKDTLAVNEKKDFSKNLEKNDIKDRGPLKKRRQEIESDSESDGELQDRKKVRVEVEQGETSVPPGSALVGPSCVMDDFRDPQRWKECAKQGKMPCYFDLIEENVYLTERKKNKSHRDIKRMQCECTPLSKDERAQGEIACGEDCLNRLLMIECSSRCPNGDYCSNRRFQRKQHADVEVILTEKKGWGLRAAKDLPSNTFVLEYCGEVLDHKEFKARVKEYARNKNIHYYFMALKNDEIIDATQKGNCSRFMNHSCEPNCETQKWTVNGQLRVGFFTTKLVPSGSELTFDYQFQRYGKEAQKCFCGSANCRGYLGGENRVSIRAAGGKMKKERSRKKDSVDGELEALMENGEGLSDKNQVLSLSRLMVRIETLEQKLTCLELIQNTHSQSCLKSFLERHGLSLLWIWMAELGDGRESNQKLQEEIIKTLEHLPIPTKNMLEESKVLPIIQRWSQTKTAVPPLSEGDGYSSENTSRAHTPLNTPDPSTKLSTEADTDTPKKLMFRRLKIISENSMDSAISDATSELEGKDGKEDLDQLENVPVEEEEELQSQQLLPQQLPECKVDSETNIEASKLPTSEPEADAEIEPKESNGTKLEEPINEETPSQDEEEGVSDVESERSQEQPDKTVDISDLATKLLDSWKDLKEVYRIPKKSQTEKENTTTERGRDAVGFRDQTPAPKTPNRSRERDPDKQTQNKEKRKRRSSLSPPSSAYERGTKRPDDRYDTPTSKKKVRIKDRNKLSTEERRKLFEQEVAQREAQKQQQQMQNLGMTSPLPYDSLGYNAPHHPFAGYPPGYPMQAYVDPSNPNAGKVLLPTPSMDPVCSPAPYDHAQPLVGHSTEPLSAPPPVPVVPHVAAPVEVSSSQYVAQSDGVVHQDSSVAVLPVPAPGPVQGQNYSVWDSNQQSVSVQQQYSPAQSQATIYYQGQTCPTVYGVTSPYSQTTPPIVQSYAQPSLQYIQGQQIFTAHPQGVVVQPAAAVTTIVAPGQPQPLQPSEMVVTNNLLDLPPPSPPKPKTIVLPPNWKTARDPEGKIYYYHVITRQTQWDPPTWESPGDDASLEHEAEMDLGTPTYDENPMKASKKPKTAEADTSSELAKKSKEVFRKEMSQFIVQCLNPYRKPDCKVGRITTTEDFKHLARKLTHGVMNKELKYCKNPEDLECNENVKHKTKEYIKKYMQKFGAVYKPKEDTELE

SUV39H2 = SUV39H2 (Homo sapiens, UniProt Q9H5I1); assay: human MTase selectivity panel
SUV39H2, sequence (Q9H5I1 whole entry): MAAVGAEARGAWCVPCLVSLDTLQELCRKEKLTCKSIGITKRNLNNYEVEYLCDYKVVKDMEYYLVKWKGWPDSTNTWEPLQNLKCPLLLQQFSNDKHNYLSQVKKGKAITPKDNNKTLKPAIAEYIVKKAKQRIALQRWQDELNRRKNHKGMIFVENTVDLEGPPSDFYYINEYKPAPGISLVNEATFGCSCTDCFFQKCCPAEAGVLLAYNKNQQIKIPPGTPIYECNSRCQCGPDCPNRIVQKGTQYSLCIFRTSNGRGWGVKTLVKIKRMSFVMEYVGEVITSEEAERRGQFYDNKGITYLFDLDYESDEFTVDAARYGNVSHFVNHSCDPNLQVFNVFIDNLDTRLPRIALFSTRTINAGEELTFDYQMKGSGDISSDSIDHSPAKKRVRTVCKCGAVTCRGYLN

[1] = target: human RNMT (N7 guanosine RNA methyltransferase) (Homo sapiens, UniProt O43148); assay: RNMT activity inhibition (selectivity)
human RNMT (N7 guanosine RNA methyltransferase), sequence (O43148 whole entry): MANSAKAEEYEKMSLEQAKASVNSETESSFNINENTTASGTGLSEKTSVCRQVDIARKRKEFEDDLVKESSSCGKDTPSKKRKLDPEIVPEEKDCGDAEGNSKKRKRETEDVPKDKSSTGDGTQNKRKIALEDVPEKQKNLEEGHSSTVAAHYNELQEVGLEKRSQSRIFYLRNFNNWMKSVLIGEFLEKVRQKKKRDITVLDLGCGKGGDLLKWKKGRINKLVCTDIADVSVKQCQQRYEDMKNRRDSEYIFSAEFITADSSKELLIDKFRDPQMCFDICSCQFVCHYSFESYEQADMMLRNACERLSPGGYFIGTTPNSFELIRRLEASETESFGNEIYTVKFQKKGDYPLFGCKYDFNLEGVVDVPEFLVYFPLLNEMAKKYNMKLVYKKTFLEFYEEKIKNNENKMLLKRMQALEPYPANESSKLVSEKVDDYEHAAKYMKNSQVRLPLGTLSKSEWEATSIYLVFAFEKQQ

PRDM9 = PRDM9 (Homo sapiens, UniProt Q9NQV7); assay: human MTase selectivity panel
PRDM9, sequence (Q9NQV7 whole entry): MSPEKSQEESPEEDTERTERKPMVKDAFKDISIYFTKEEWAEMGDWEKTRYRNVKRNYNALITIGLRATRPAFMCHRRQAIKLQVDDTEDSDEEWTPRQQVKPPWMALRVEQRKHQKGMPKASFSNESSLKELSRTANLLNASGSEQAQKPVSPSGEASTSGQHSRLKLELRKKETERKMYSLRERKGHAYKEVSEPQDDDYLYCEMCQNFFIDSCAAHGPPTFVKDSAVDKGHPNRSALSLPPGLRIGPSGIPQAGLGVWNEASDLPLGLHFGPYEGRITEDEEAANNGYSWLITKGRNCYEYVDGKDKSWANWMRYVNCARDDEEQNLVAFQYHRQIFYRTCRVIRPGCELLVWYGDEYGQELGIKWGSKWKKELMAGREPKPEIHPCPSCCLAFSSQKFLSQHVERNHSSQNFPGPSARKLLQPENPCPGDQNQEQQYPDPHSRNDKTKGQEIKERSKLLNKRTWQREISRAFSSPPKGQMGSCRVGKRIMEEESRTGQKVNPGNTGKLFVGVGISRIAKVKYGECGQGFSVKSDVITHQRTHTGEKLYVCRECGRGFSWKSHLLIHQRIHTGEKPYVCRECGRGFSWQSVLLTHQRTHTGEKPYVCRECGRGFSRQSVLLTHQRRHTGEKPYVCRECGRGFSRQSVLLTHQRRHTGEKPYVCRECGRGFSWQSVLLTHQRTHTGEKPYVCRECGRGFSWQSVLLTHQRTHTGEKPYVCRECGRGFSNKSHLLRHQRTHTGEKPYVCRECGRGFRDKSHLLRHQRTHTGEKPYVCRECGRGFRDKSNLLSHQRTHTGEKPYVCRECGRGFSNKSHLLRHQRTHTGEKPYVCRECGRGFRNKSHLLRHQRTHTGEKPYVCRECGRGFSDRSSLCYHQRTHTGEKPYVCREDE

[2] = average ± SD, read-out: Activity (%) at 10 µM Average
[3] = read-out: Activity (%) at 10 µM Replicate 1
[4] = read-out: Activity (%) at 10 µM Replicate 2
[5] = read-out: Activity (%) at 10 µM Replicate 3

Compound: Nc1ncnc2c1ncn2[C@@H]1O[C@H](CSCc2ccc(Cl)cc2)[C@@H](O)[C@H]1O [NSC620333]
- activity at 10 µM (PRMT4; [2]): 97 ± 3%
- activity at 10 µM (PRMT4; [3]): 96%
- activity at 10 µM (PRMT4; [4]): 95%
- activity at 10 µM (PRMT4; [5]): 101%
- activity at 10 µM (PRMT6; [2]): 100 ± 3%
- activity at 10 µM (PRMT6; [3]): 97%
- activity at 10 µM (PRMT6; [4]): 99%
- activity at 10 µM (PRMT6; [5]): 103%
- IC50 (SARS-CoV-2 nsp14 MTase; IC50 (µM), nsp14 MTase activity, high-throughput screening follow-up): 5 µM
- IC50 (SARS-CoV-2 nsp14 MTase; IC50, at Km of both SAM and RNA substrates, mean ± SD, n = 3): 5.3 ± 1 µM
- mechanism of action with respect to RNA substrate (SARS-CoV-2 nsp14 MTase; IC50 at varying RNA (31 to 500 nM), fixed SAM 1.25 µM): noncompetitive
- mechanism of action with respect to SAM (SARS-CoV-2 nsp14 MTase; IC50 at varying SAM (0.15 to 2.5 µM), fixed RNA 0.25 µM): SAM competitive
- inhibition of nsp14, batch retesting (SARS-CoV-2 nsp14 MTase; custom-ordered, highly purified (>99%) sample): more pronounced inhibition
- inhibition at 100 µM (SARS-CoV-2 nsp14 MTase; read-out: nsp14 Inhibition % (100µM) Exp 1): 100%
- inhibition at 100 µM (SARS-CoV-2 nsp14 MTase; read-out: nsp14 Inhibition % (100µM) Exp 2): 99%
- activity at 10 µM (GLP; [2]): 100 ± 5%
- activity at 10 µM (GLP; [3]): 95%
- activity at 10 µM (GLP; [4]): 105%
- activity at 10 µM (GLP; [5]): 101%
- activity at 10 µM (SETD2; [2]): 103 ± 4%
- activity at 10 µM (SETD2; [3]): 99%
- activity at 10 µM (SETD2; [4]): 103%
- activity at 10 µM (SETD2; [5]): 107%
- activity at 10 µM (SUV39H2; [2]): 103 ± 7%
- activity at 10 µM (SUV39H2; [3]): 108%
- activity at 10 µM (SUV39H2; [4]): 96%
- activity at 10 µM (SUV39H2; [5]): 106%
- IC50 ([1]; RNMT): 8.6 ± 1.3 µM
- Hill Slope ([1]; RNMT IC50 curve): -1.5
- activity at 10 µM (PRDM9; [2]): 106 ± 3%
- activity at 10 µM (PRDM9; [3]): 110%
- activity at 10 µM (PRDM9; [4]): 105%
- activity at 10 µM (PRDM9; [5]): 104%
